HELM strings list units from the 5' end as sugar, base in round brackets, then linkage (d deoxyribose, r ribose, m 2'-O-methyl, p phosphodiester). Strings are as the collection lists them, not checked against the first reports. ss, as = sense and antisense strand; [lna] = locked nucleic acid (LNA); [fl2r] = 2'-fluoro
Further: test system not given here.

For the series the following is noted: siRNA.
“RNA1{m(A)p.m(A)p.m(G)p.r(G)p.r(A)p.m(G)p.m(A)p.m(U)p.r(C)p.r(A)p.r(A)p.m(C)p.m(A)p.m(U)p.r(U)p.r(U)p.m(U)p.m(C)p.m(A)p.r(T)p.r(T)}|RNA2{m(U)p.m(G)p.m(A)p.r(A)p.r(A)p.m(A)p.m(U)p.m(G)p.r(U)p.r(U)p.r(G)p.m(A)p.m(U)p.m(C)p.r(U)p.r(C)p.m(C)p.m(U)p.m(U)p.r(T)p.r(T)}$$$RNA1{StrandType:ss}|RNA2{StrandType:as}$”: the target mRNA knockdown was found to be 45%. To “RNA1{m(G)p.r(C)p.m(U)p.r(U)p.m(U)p.r(A)p.m(A)p.r(G)p.m(G)p.r(A)p.m(A)p.r(C)p.m(U)p.r(G)p.m(G)p.r(A)p.m(A)p.r(G)p.m(G)p.r(T)p.r(T)}|RNA2{r(C)p.m(C)p.r(U)p.m(U)p.r(C)p.m(C)p.r(A)p.m(G)p.r(U)p.m(U)p.r(C)p.r(C)p.r(U)p.r(U)p.r(A)p.r(A)p.r(A)p.r(G)p.r(C)p.r(T)p.r(T)}$$$RNA1{StrandType:ss}|RNA2{StrandType:as}$” belongs 25%. Turning to “RNA1{r(C)p.r(U)p.[fl2r](A)p.[fl2r](A)p.r(G)p.r(C)p.r(C)p.r(U)p.r(G)p.[fl2r](U)p.r(U)p.r(U)p.r(C)p.r(U)p.r(U)p.r(C)p.r(C)p.r(U)p.r(C)p.r(T)p.r(T)}|RNA2{r(G)p.r(A)p.r(G)p.r(G)p.r(A)p.r(A)p.r(G)p.r(A)p.r(A)p.r(A)p.r(C)p.r(A)p.r(G)p.r(G)p.r(C)p.r(U)p.[fl2r](U)p.r(A)p.r(G)p.r(T)p.r(T)}$$$RNA1{StrandType:ss}|RNA2{StrandType:as}$”, the target mRNA knockdown turned out to be 85%.

With “RNA1{r(U)p.r(C)p.r(C)p.r(U)p.r(C)p.r(G)p.r(U)p.r(C)p.[fl2r](G)p.r(U)p.r(C)p.[fl2r](U)p.[fl2r](G)p.r(U)p.r(U)p.r(C)p.[fl2r](U)p.r(A)p.r(A)p.r(T)p.r(T)}|RNA2{r(U)p.[fl2r](U)p.r(A)p.r(G)p.r(A)p.r(A)p.[fl2r](C)p.r(A)p.r(G)p.r(A)p.r(C)p.r(G)p.r(A)p.r(C)p.r(G)p.r(A)p.r(G)p.r(G)p.r(A)p.r(T)p.r(T)}$$$RNA1{StrandType:ss}|RNA2{StrandType:as}$”, the target mRNA knockdown was found to be 77%.

On to “RNA1{r(U)p.r(U)p.r(C)p.[fl2r](U)p.r(A)p.r(A)p.r(C)p.r(C)p.r(G)p.r(G)p.r(G)p.[fl2r](C)p.r(A)p.r(G)p.r(C)p.r(U)p.r(U)p.r(C)p.r(U)p.r(T)p.r(T)}|RNA2{r(A)p.r(G)p.r(A)p.r(A)p.r(G)p.r(C)p.[fl2r](U)p.r(G)p.r(C)p.r(C)p.r(C)p.r(G)p.r(G)p.r(U)p.[fl2r](U)p.r(A)p.r(G)p.r(A)p.r(A)p.r(T)p.r(T)}$$$RNA1{StrandType:ss}|RNA2{StrandType:as}$”, for which the target mRNA knockdown amounted to 71%. Substance “RNA1{r(G)p.r(G)p.r(G)p.r(A)p.r(G)p.r(G)p.r(A)p.[fl2r](U)p.[fl2r](G)p.r(A)p.[fl2r](C)p.r(A)p.r(A)p.r(A)p.r(G)p.r(A)p.r(A)p.r(G)p.r(C)p.r(T)p.r(T)}|RNA2{r(G)p.r(C)p.r(U)p.r(U)p.r(C)p.r(U)p.r(U)p.[fl2r](U)p.r(G)p.r(U)p.[fl2r](C)p.r(A)p.r(U)p.r(C)p.r(C)p.r(U)p.r(C)p.r(C)p.r(C)p.r(T)p.r(T)}$$$RNA1{StrandType:ss}|RNA2{StrandType:as}$” yielded a target mRNA knockdown of 78%. In turn, “RNA1{r(A)p.r(U)p.r(C)p.r(U)p.r(G)p.r(A)p.r(A)p.r(G)p.r(A)p.r(A)p.r(G)p.r(G)p.r(A)p.r(G)p.r(A)p.r(A)p.r(A)p.r(A)p.r(A)p.d(T)p.d(T)}|RNA2{[lna](T)p.r(U)p.r(U)p.r(U)p.r(U)p.r(C)p.r(U)p.r(C)p.r(C)p.r(U)p.r(U)p.r(C)p.r(U)p.r(U)p.r(C)p.r(A)p.r(G)p.r(A)p.r(U)p.[lna](T)p.[lna](T)}$$$RNA1{StrandType:ss}|RNA2{StrandType:as}$” yielded a target mRNA knockdown of 45%. As to “RNA1{m(A)p.r(G)p.m(A)p.r(G)p.m(A)p.r(G)p.m(G)p.r(U)p.m(G)p.r(G)p.m(A)p.r(G)p.m(G)p.r(U)p.m(A)p.r(U)p.m(C)p.r(U)p.m(C)p.r(T)p.r(T)}|RNA2{r(G)p.r(A)p.r(G)p.r(A)p.r(U)p.r(A)p.r(C)p.r(C)p.r(U)p.r(C)p.r(C)p.m(A)p.r(C)p.r(C)p.r(U)p.m(C)p.r(U)p.m(C)p.r(U)p.r(T)p.r(T)}$$$RNA1{StrandType:ss}|RNA2{StrandType:as}$”, the target mRNA knockdown is 67%. Substance “RNA1{r(G)p.r(G)p.r(C)p.r(U)p.[fl2r](U)p.r(A)p.r(G)p.r(U)p.r(C)p.r(A)p.r(C)p.r(U)p.r(C)p.r(C)p.r(U)p.r(C)p.r(U)p.r(U)p.r(C)p.r(T)p.r(T)}|RNA2{r(G)p.r(A)p.r(A)p.r(G)p.r(A)p.r(G)p.r(G)p.r(A)p.r(G)p.r(U)p.r(G)p.r(A)p.r(C)p.[fl2r](U)p.r(A)p.r(A)p.r(G)p.r(C)p.r(C)p.r(T)p.r(T)}$$$RNA1{StrandType:ss}|RNA2{StrandType:as}$” gave a target mRNA knockdown of 69%. To “RNA1{r(A)p.r(A)p.m(C)p.m(C)p.m(C)p.r(A)p.r(A)p.r(A)p.r(G)p.r(G)p.r(G)p.r(G)p.r(A)p.r(G)p.r(U)p.r(U)p.r(G)p.m(C)p.r(U)p.r(T)p.r(T)}|RNA2{m(A)p.r(G)p.m(C)p.r(A)p.m(A)p.r(C)p.m(U)p.r(C)p.m(C)p.r(C)p.m(C)p.r(U)p.m(U)p.r(U)p.m(G)p.r(G)p.m(G)p.r(U)p.m(U)p.r(T)p.r(T)}$$$RNA1{StrandType:ss}|RNA2{StrandType:as}$” belongs 37%. For the substance “RNA1{r(C)p.r(U)p.r(U)p.r(A)p.r(C)p.r(G)p.r(C)p.r(U)p.r(G)p.r(A)p.r(G)p.r(U)p.r(A)p.r(C)p.r(U)p.r(U)p.r(C)p.r(G)p.r(A)p.r(T)p.r(T)}|RNA2{r(U)p.r(C)p.r(G)p.r(A)p.r(A)p.r(G)p.r(U)p.r(A)p.r(C)p.r(U)p.r(C)p.r(A)p.r(G)p.r(C)p.r(G)p.[lna](U)p.r(A)p.r(A)p.r(G)p.r(T)p.r(T)}$$$RNA1{StrandType:ss}|RNA2{StrandType:as}$”, the target mRNA knockdown amounted to 81%. Substance “RNA1{r(G)p.r(G)p.r(A)p.r(G)p.r(C)p.m(U)p.r(A)p.r(G)p.r(A)p.r(C)p.r(G)p.r(G)p.r(G)p.m(U)p.r(A)p.r(C)p.r(G)p.r(A)p.r(G)p.r(T)p.r(T)}|RNA2{r(C)p.r(U)p.r(C)p.r(G)p.m(U)p.r(A)p.r(C)p.r(C)p.r(C)p.r(G)p.r(U)p.r(C)p.m(U)p.r(A)p.r(G)p.r(C)p.r(U)p.r(C)p.r(C)p.r(T)p.r(T)}$$$RNA1{StrandType:ss}|RNA2{StrandType:as}$” had a target mRNA knockdown of 82%. In the case of “RNA1{m(U)p.r(A)p.m(A)p.r(A)p.m(C)p.r(U)p.m(U)p.r(U)p.m(G)p.r(G)p.m(G)p.r(G)p.m(A)p.r(A)p.m(G)p.r(G)p.m(G)p.r(A)p.m(G)p.r(T)p.r(T)}|RNA2{r(C)p.r(U)p.r(C)p.r(C)p.r(C)p.r(U)p.r(U)p.r(C)p.r(C)p.r(C)p.r(C)p.r(A)p.r(A)p.r(A)p.r(G)p.r(U)p.r(U)p.r(U)p.r(A)p.r(T)p.r(T)}$$$RNA1{StrandType:ss}|RNA2{StrandType:as}$”, the target mRNA knockdown came out at 34%. As for “RNA1{r(C)p.r(U)p.r(U)p.r(A)p.r(C)p.r(G)p.r(C)p.r(U)p.r(G)p.r(A)p.r(G)p.r(U)p.r(A)p.r(C)p.r(U)p.r(U)p.r(C)p.r(G)p.r(A)p.r(T)p.r(T)}|RNA2{r(T)p.r(C)p.r(G)p.[lna](A)p.r(A)p.r(G)p.r(U)p.r(A)p.r(C)p.r(U)p.r(C)p.r(A)p.r(G)p.r(C)p.r(G)p.r(U)p.r(A)p.r(A)p.r(G)p.[lna](T)p.[lna](T)}$$$RNA1{StrandType:ss}|RNA2{StrandType:as}$”, the figure is 91%.

The values above are taken from the OligoGym collection.
